Measured values published in ChEMBL document CHEMBL1201862, “PubChem BioAssay data set” (2004).
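How tested: cells in 96-well plates exposed to compound for 48 hours at five concentrations. The concentration for 50% growth inhibition is given as GI50.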 Active and inactive are the calls of the source. No stated cut-off is given here; in the data, active = GI50 up to about 1.1 µM and inactive = higher.

Experiments:
Assay in all cases: NCI anticancer screen, dose series, 48 h
[1] = tested on: HL-60
[2] = tested on: A498
[3] = tested on: MOLT-4
[4] = tested on: NCI-H23
[5] = tested on: IGROV-1
[6] = tested on: OVCAR-3
[7] = tested on: NCI-H460
[8] = tested on: HCT-116
[9] = tested on: SW-620
[10] = tested on: CCRF-CEM
[11] = tested on: OVCAR-5
[12] = tested on: HT-29
[13] = tested on: UACC-62
[14] = tested on: 786-0
[15] = tested on: LOX IMVI
[16] = tested on: RXF 393

Row | SMILES | GI50 [1] | GI50 [2] | GI50 [3] | GI50 [4] | GI50 [5] | GI50 [6] | GI50 [7] | GI50 [8] | GI50 [9] | GI50 [10] | GI50 [11] | GI50 [12] | GI50 [13] | GI50 [14] | GI50 [15] | GI50 [16]
1 | CNC(=O)OCc1c2ccncc2c(C)c2c1[nH]c1ccc(OC)cc12 | 0.204 µM (active) | 0.176 µM (active) | 0.0404 µM (active) | 0.115 µM (active) | 0.284 µM (active) | 0.311 µM (active) | 0.19 µM (active) | 0.156 µM (active) | 0.164 µM (active) | 0.176 µM (active) | 0.247 µM (active) | 0.33 µM (active) | 0.16 µM (active) | 0.156 µM (active) | 0.256 µM (active) | 
2 | CNS(=O)(=O)NNS(=O)(=O)c1ccccc1 | > 100 µM (inactive) | > 100 µM (inactive) | > 100 µM (inactive) | > 100 µM (inactive) | > 100 µM (inactive) | > 100 µM (inactive) | > 100 µM (inactive) | > 100 µM (inactive) | > 100 µM (inactive) | > 100 µM (inactive) | > 100 µM (inactive) | > 100 µM (inactive) | > 100 µM (inactive) | > 100 µM (inactive) | > 100 µM (inactive) | > 100 µM (inactive)
3 | C[Si](C)(C)OC1CC(=O)OC1n1cc(F)c(=O)[nH]c1=O (stereo not drawn) | 9.71 µM (inactive) | > 100 µM (inactive) | 17.8 µM (inactive) | > 27.8 µM (inactive) | > 96.6 µM (inactive) | 52.8 µM (inactive) | 3.72 µM (inactive) | 5.79 µM (inactive) | 24.2 µM (inactive) | 18.2 µM (inactive) | > 89.9 µM (inactive) | 8.32 µM (inactive) | 10.8 µM (inactive) | 21.4 µM (inactive) | 7.94 µM (inactive) | > 43.6 µM (inactive)
4 | Cc1nc2c(s/c(=N\N)n2-c2ccccc2)c(=O)n1C | > 100 µM (inactive) | > 100 µM (inactive) | > 100 µM (inactive) | > 100 µM (inactive) | > 100 µM (inactive) |  | > 100 µM (inactive) | > 100 µM (inactive) | > 100 µM (inactive) | > 100 µM (inactive) | > 100 µM (inactive) | > 100 µM (inactive) | > 100 µM (inactive) | > 100 µM (inactive) | > 100 µM (inactive) | > 100 µM (inactive)
5 | O=C(O)CNS(=O)(=O)c1ccc(NC(=O)c2cccc([N+](=O)[O-])c2)cc1 | > 100 µM (inactive) | > 100 µM (inactive) | > 100 µM (inactive) | > 100 µM (inactive) | > 100 µM (inactive) | > 100 µM (inactive) | > 100 µM (inactive) |  | > 100 µM (inactive) | > 100 µM (inactive) | > 100 µM (inactive) | > 100 µM (inactive) | > 100 µM (inactive) | > 100 µM (inactive) | > 100 µM (inactive) | > 100 µM (inactive)
6 | C/C=C1\CN2CCc3c([nH]c4ccccc34)C2C=C1CCO (stereo not drawn) | > 340 µM (inactive) |  | > 340 µM (inactive) | > 340 µM (inactive) | > 340 µM (inactive) | 231 µM (inactive) | > 340 µM (inactive) | > 340 µM (inactive) | > 340 µM (inactive) | > 340 µM (inactive) | > 340 µM (inactive) | > 340 µM (inactive) | > 340 µM (inactive) | > 340 µM (inactive) | > 340 µM (inactive) | > 340 µM (inactive)
7 | O=C1C(=O)C(Br)(Br)C(Br)=C1Br | 18.7 µM (inactive) |  | 24.4 µM (inactive) | > 10 µM (inactive) | 38.1 µM (inactive) | 15.5 µM (inactive) | 34 µM (inactive) |  | 13.8 µM (inactive) | 16.2 µM (inactive) | 13.6 µM (inactive) | 19 µM (inactive) | 18.5 µM (inactive) | 16.4 µM (inactive) | 13.7 µM (inactive) | > 10 µM (inactive)
8 | Cc1ccc(C)c(N2C(=O)C(=O)C(c3nc4ccccc4s3)/C(=N\c3cccc4c(=O)[nH][nH]c(=O)c34)C2=O)c1 (stereo not drawn) | > 100 µM (inactive) | > 100 µM (inactive) | > 100 µM (inactive) | > 100 µM (inactive) | > 100 µM (inactive) | > 100 µM (inactive) | > 100 µM (inactive) | > 100 µM (inactive) | > 100 µM (inactive) | > 100 µM (inactive) | > 100 µM (inactive) | > 100 µM (inactive) | > 100 µM (inactive) | > 100 µM (inactive) | > 100 µM (inactive) | 
9 | Cc1ccc(NC(=O)COC(=O)c2cccc3c(=O)c4ccccc4[nH]c23)cc1 | 38.3 µM (inactive) | 19.1 µM (inactive) | 13.6 µM (inactive) | 17.8 µM (inactive) | 44.8 µM (inactive) | 54 µM (inactive) | 35.2 µM (inactive) | 14.6 µM (inactive) | 21.5 µM (inactive) |  |  | 36.6 µM (inactive) | 30.6 µM (inactive) | 28.4 µM (inactive) | 16.9 µM (inactive) | 22.8 µM (inactive)
10 | O=C(OCCOCCOC(=O)c1c[nH]cc1-c1ccccc1)c1c[nH]cc1-c1ccccc1 | 17.9 µM (inactive) | 19.3 µM (inactive) | 17.9 µM (inactive) | 17.1 µM (inactive) | 21.3 µM (inactive) | 22.1 µM (inactive) | 21.2 µM (inactive) | 16 µM (inactive) | 28.4 µM (inactive) | 23 µM (inactive) | 25.8 µM (inactive) | 18.8 µM (inactive) | 15.9 µM (inactive) | 25.9 µM (inactive) | 16.4 µM (inactive) | 15.4 µM (inactive)
11 | C=C1C(C)C2C(Cc3ccccc3)NC(=O)C23OC(=O)/C=C\CC(=O)CCC(C)C/C=C/C3C1O (stereo not drawn) |  | 1.37 µM (inactive) | 0.91 µM (active) | 3.1 µM (inactive) | 3.42 µM (inactive) | 1.82 µM (inactive) | 5.85 µM (inactive) | 2.54 µM (inactive) | 1.36 µM (inactive) |  | 8.69 µM (inactive) | 1.54 µM (inactive) | 2.45 µM (inactive) | 0.438 µM (active) | 0.875 µM (active) | 0.43 µM (active)
12 | CC1(C(=O)NCCN(CCNC(=O)C2(C)CC3(C)CC(C)(C2)C(=O)NC3=O)CCNC(=O)C2(C)CC3(C)CC(C)(C2)C(=O)NC3=O)CC2(C)CC(C)(C1)C(=O)NC2=O (stereo not drawn) | > 100 µM (inactive) | > 100 µM (inactive) | > 100 µM (inactive) | > 100 µM (inactive) | > 100 µM (inactive) | > 100 µM (inactive) | > 100 µM (inactive) | > 100 µM (inactive) | > 100 µM (inactive) | > 100 µM (inactive) |  | > 100 µM (inactive) | > 100 µM (inactive) | > 100 µM (inactive) |  | > 100 µM (inactive)
13 | N#CNc1nc(N)c(-c2ccc(Cl)cc2)c(C(=O)Nc2nccs2)n1 | > 100 µM (inactive) | > 100 µM (inactive) | > 100 µM (inactive) | > 100 µM (inactive) | > 100 µM (inactive) | > 100 µM (inactive) | > 100 µM (inactive) | > 100 µM (inactive) | > 100 µM (inactive) |  | > 100 µM (inactive) | > 100 µM (inactive) | > 100 µM (inactive) | > 100 µM (inactive) | > 100 µM (inactive) | > 100 µM (inactive)
14 | NS(=O)(=O)c1ccc(NC(=O)c2cccc3c(Nc4ccc(S(N)(=O)=O)cc4)c4ccccc4nc23)cc1 | 28.6 µM (inactive) | > 100 µM (inactive) | 4.5 µM (inactive) | 87.5 µM (inactive) | > 100 µM (inactive) | 13.6 µM (inactive) | > 100 µM (inactive) | 46.8 µM (inactive) | 29.4 µM (inactive) | 6.18 µM (inactive) | > 100 µM (inactive) | 14.6 µM (inactive) | 31.8 µM (inactive) | 25.3 µM (inactive) | 5.55 µM (inactive) | 52.5 µM (inactive)
15 | Cc1nn(C(=O)CC(=O)Nc2ccc(Cl)cc2)c(C)c1/N=N/c1ccccc1C(=O)O | > 100 µM (inactive) | > 100 µM (inactive) | > 100 µM (inactive) | > 100 µM (inactive) | > 100 µM (inactive) | > 100 µM (inactive) | > 100 µM (inactive) | > 100 µM (inactive) | > 100 µM (inactive) | > 100 µM (inactive) | > 100 µM (inactive) | > 100 µM (inactive) | > 100 µM (inactive) | > 100 µM (inactive) | > 100 µM (inactive) | 
16 | CC(=O)n1c2ccccc2c2nc3nc(Oc4ccc(C)cc4)c4ccccc4c3cc21 |  |  | > 100 µM (inactive) | 21.8 µM (inactive) | > 100 µM (inactive) | > 100 µM (inactive) | > 100 µM (inactive) | > 100 µM (inactive) | > 100 µM (inactive) | > 100 µM (inactive) | > 100 µM (inactive) | > 100 µM (inactive) | > 100 µM (inactive) | 65.8 µM (inactive) | > 100 µM (inactive) | 
17 | COC(=O)/C(=N\NC(C)(C)C)C(C(=O)OC)C(=O)C(=O)Nc1cc(Cl)ccc1Cl (stereo not drawn) | > 100 µM (inactive) | > 100 µM (inactive) | > 100 µM (inactive) | > 100 µM (inactive) | > 100 µM (inactive) | > 100 µM (inactive) | > 100 µM (inactive) | > 100 µM (inactive) | > 100 µM (inactive) | > 100 µM (inactive) | > 100 µM (inactive) | > 100 µM (inactive) | > 100 µM (inactive) | > 100 µM (inactive) | > 100 µM (inactive) | > 100 µM (inactive)
18 | COC(=O)c1ccc(Cl)cc1NC(=O)C1CCCCC1 |  |  | > 100 µM (inactive) | > 100 µM (inactive) |  | > 100 µM (inactive) |  | > 100 µM (inactive) | > 100 µM (inactive) |  | > 100 µM (inactive) | > 100 µM (inactive) |  | > 100 µM (inactive) |  | 20.3 µM (inactive)
